Among the data in patent US20130137865A1 (TAISHO PHARMACEUTICAL CO., LTD., priority 2010, published 2013) are IC50 values, retold here.

The target in this assay is T1, rat mGlu2 receptor (Rattus norvegicus, UniProt P31421).
T1 construct: expressed in transfected cells; host or cells: CHO cells
The experiment in a line: [35S]GTPγS binding test (1), membranes of CHO cells stably expressing rat mGlu2. The following applies: inhibition of glutamic acid (20 μM)-stimulated specific [35S]GTPγS binding. Format: biochemical. On the procedure: (Preparation of Crude Membrane Fraction of CHO Cells Stably Expressing the Rat Metabotropic Glutamate Receptor (mGlu2))
CHO cells stably expressing the rat mGlu2 receptor were cultured in a 10% dialyzed fetal bovine serum-containing Dulbecco's Modified Eagle's Medium [1% proline, 50 units/mL penicillin, 50 μg/mL streptomycin, and 2 mM L-glutamine (to be added when used)] at 37° C. in 5% CO2. Confluent cells were washed with PBS(−) twice, and were then harvested with a cell scraper. Then, the cells were centrifuged at 4° C. at 1000 rpm for 5 minutes to collect. The obtained precipitate was suspended in a 20 mM HEPES buffer (pH 7.4), and then homogenized with a Teflon® homogenizer. The resultant was centrifuged at 4° C. at 48,000×g for 20 minutes to obtain a precipitate again. The obtained precipitate was washed twice by centrifugation, and was then homogenized with the above-mentioned buffer, so as to obtain a crude membrane fraction. The obtained crude membrane fraction was preserved at −80° C.
The frozen membrane fraction as prepared above was thawed when used, and it was then diluted with a binding test buffer (final concentration: 20 mM HEPES, 100 mM NaCl, 10 mM MgCl2, 8.4 μM GDP, 10 μg/mL saponin, and 0.1% BSA). The compound of the Example was added to a membrane fraction (10 μg protein/assay), and the obtained mixture was then incubated at 30° C. for 20 minutes. Thereafter, glutamic acid (final concentration: 20 μM) and [^35S]GTPγS (final concentration: 0.15 nM) were added to the reaction mixture, and then incubated at 30° C. for 1 hour. After completion of the incubation, the reaction mixture was subjected to filtration over a Whatman GF/C filter that had previously been immersed in a 20 mM HEPES buffer (pH 7.4), and the filter was then washed three times with 300 μL of ice-cold 20 mM HEPES buffer (pH 7.4). A scintillation cocktail was added to the resulting filter, and membrane-bound radioactivity was then measured with a liquid scintillation counter.
The amount of [^35S]GTPγS bound in the case of carrying out the above described reaction in the absence of glutamic acid was defined as non-specific binding. The difference between such non-specific bound and the amount of [^35S]GTPγS bound in the presence of glutamic acid was defined as specific binding. Using non-linear analysis, a concentration-inhibition curve was produced. The concentration of the compound of each Example that caused 50% inhibition (IC50 value) of specific binding was determined from each concentration-inhibition curve.

The structures appear in SMILES notation.

T1 sequence (P31421 19-872): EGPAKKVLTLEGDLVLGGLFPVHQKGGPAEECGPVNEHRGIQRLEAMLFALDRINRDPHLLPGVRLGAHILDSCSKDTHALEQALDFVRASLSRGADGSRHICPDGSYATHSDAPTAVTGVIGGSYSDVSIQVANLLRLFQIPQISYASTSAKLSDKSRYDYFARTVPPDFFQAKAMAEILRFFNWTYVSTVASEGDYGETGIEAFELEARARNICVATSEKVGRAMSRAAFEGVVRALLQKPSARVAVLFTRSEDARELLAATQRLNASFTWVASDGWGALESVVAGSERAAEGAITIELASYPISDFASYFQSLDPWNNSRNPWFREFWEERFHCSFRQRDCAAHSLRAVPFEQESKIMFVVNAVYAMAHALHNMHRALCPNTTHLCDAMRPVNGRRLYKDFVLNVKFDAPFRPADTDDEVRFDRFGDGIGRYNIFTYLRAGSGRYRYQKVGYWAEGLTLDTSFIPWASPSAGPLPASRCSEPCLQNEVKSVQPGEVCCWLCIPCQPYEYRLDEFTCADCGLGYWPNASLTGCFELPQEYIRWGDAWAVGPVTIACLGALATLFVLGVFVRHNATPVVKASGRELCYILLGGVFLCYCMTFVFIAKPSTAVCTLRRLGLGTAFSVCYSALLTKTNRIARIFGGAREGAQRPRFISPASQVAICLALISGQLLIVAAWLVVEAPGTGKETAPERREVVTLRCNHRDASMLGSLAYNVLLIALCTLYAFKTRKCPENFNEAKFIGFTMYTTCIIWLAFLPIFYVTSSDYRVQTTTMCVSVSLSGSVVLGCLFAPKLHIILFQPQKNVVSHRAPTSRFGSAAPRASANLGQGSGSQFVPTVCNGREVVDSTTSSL

A word on the IC50: it is the concentration needed to halve the response being measured. A low value points to higher potency. `Cn1ncc(-n2cc(-c3ccc(S(N)(=O)=O)cc3)cn2)c1CCc1ccc(C(F)(F)F)cc1` [Example 6, 4-(1′-Methyl-5′-{2-[4-(trifluoromethyl)phenyl]ethyl}-1′H-1,4′-bipyrazol-4-yl)benzenesulfonamide] displayed an IC50 of 58.5 nM.

Regarding `Cn1ncc(-c2nc(-c3cccc(S(=O)(=O)O)c3)no2)c1COc1ccc(C(F)(F)F)cc1` [Example 134, 3-[5-(1-Methyl-5-{[4-(trifluoromethyl)phenoxy]methyl}-1H-pyrazol-4-yl)-1,2,4-oxadiazol-3-yl]benzenesulfonic acid], the IC50 is 25.1 nM.

The compound `Cn1ncc(-c2nc(-c3cccc(S(N)(=O)=O)c3)no2)c1N1Cc2ccc(C(F)(F)F)cc2C1` [Example 21, 3-(5-{1-Methyl-5-[5-(trifluoromethyl)-1,3-dihydro-2H-isoindol-2-yl]-1H-pyrazol-4-yl}-1,2,4-oxadiazol-3-yl)benzenesulfonamide] came in with an IC50 of 14.8 nM.

With `Cn1ncc(-c2nc(-c3ccc(S(N)(=O)=O)cc3)no2)c1OCc1ccc(C(F)(F)F)cc1` [Example 56, 4-[5-(1-Methyl-5-{[4-(trifluoromethyl)benzyl]oxy}-1H-pyrazol-4-yl)-1,2,4-oxadiazol-3-yl]benzenesulfonamide], the IC50 was determined as 44.7 nM.

Turning to `Cn1ncc(-c2nc(-c3ccc(S(=O)(=O)O)cc3)no2)c1CCc1ccc(C(F)(F)F)cc1` [Example 15, 4-[5-(1-Methyl-5-{2-[4-(trifluoromethyl)phenyl]ethyl}-1H-pyrazol-4-yl)-1,2,4-oxadiazol-3-yl]benzenesulfonic acid], the IC50 was 39.6 nM.

For `Cn1ncc(-c2nc(-c3cccc(S(N)(=O)=O)c3)no2)c1C#Cc1ccc(C(F)(F)F)cn1` [Example 7, 3-[5-(1-Methyl-5-{[5-(trifluoromethyl)pyridin-2-yl]ethynyl}-1H-pyrazol-4-yl)-1,2,4-oxadiazol-3-yl]benzenesulfonamide], the IC50 was determined as 17.6 nM.
